SMILES strings stand for the structures. pIC50: −log10 of the molar value.

System in one data set: not given
Test: not given
Settings: not given
Usually melting point stands for the temperature of the solid-liquid transition. Turning to `CCOc1ccc(C(=O)CCC(=O)Nc2sc(-c3ccccc3)nc2-c2ccccc2)cc1OCC` [Example 16, 4-(3,4-diethoxyphenyl)-N-(2,4-diphenyl-1,3-thiazol-5-yl)-4-oxobutanamide], the melting point lay in the range of 139 to 140 °C.

The next data set has as its target T1, Human DGAT1 (Homo sapiens, UniProt O75907).
T1 construct: my translation of the primer: M-G-DYKDDDD-GDRGSSRRR) (N); made in house; host or cells: Sf9 insect cells (recombinant baculovirus BAC-DGAT1, pFASTBAC1); microsome fraction
T1 sequence (O75907 1-488): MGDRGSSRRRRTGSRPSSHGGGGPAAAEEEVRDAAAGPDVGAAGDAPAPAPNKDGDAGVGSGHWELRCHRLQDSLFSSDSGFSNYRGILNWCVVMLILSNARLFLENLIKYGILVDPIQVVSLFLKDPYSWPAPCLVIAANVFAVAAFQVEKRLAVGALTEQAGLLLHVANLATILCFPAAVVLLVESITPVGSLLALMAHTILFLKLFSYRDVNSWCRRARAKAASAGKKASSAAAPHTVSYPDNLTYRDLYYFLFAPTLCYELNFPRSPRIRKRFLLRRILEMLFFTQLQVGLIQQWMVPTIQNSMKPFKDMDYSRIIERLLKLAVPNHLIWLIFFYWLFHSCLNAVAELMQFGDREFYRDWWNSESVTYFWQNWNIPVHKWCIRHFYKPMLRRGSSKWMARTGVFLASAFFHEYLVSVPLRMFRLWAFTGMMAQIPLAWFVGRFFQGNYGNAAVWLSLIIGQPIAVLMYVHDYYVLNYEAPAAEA
Description: DGAT inhibitory activity: [14C]-triglyceride synthesis by DGAT1 high expression Sf9 microsome. In kind it is biochemical. The note with it: Table 1, 25 μM dioleoylglycerol, 25 μM [14C]-Oleoyl-CoA, 32° C., 15 min, read-out: DGAT inhibitory activity (according to IC50). In a few lines:
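DGAT1 was overexpressed from recombinant baculovirus in Sf9 cells, and microsomes from these cells were the enzyme source. Reactions ran in 100 mM Tris-HCl pH 7.5, 250 mM sucrose, 150 mM MgCl2 and 0.01% BSA. [14C]-triglyceride was extracted into chloroform, separated by TLC and quantified by imaging plate, with inhibition calculated against control and blank (no microsome) counts.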
By pIC50 is commonly meant −log10 of the IC50, conventionally taken in molar units. As for `CCOc1ccc(C(=O)CCC(=O)Nc2sc(-c3ccccc3)nc2-c2ccccc2)cc1OCC` [Example 16, 4-(3,4-diethoxyphenyl)-N-(2,4-diphenyl-1,3-thiazol-5-yl)-4-oxobutanamide], the pIC50 was 6.30 to 7.30.

Staying with this data set, now noted: Table 2, 25 μM dioleoylglycerol, 25 μM [14C]-Oleoyl-CoA, 32° C., 15 min, read-out: DGAT inhibitory activity (according to IC50).
On to `O=C(O)CCc1cccc(-c2cc(NC(=O)CCC(=O)c3ccc4c(c3)CCO4)nc(-c3ccccc3)c2)c1` [Example 172, 3-[3-(2-{[4-(2,3-dihydro-1-benzofuran-5-yl)-4-oxobutanoyl]amino}-6-phenylpyridin-4-yl)phenyl]propanoic acid], for which the pIC50 is 5.00 to 6.30.
On the same count and under the same terms, with `COC(=O)CCc1cccc(-c2cc(NC(=O)CCC(=O)c3ccc4c(c3)CCO4)nc(-c3ccccc3)c2)c1` [Example 173, methyl 3-[3-(2-{[4-(2,3-dihydro-1-benzofuran-5-yl)-4-oxobutanoyl]amino}-6-phenylpyridin-4-yl)phenyl]propanoate] the figure was 7.30 to 8.00; with `O=C(O)/C=C/c1cccc(-c2cc(NC(=O)CCC(=O)c3ccc4c(c3)CCO4)nc(-c3ccccc3)c2)c1` [Example 174, (2E)-3-[3-(2-{[4-(2,3-dihydro-1-benzofuran-5-yl)-4-oxobutanoyl]amino)-6-phenylpyridin-4-yl)phenyl]acrylic acid], 5.00 to 6.30; with `O=C(CCC(=O)c1ccc2c(c1)CCO2)Nc1cc(-c2cccc(OC(F)(F)F)c2)cc(-c2ccccc2)n1` [Example 175, 4-(2,3-dihydro-1-benzofuran-5-yl)-4-oxo-N-{6-phenyl-4-[3-(trifluoromethoxy)phenyl]pyridin-2-yl}butanamide], 6.30 to 7.30.
Still for that read-out and setting: then `N#Cc1ccccc1-c1cc(NC(=O)CCC(=O)c2ccc3c(c2)CCO3)nc(-c2ccccc2)c1` [Example 176, N-[4-(2-cyanophenyl)-6-phenylpyridin-2-yl]-4-(2,3-dihydro-1-benzofuran-5-yl)-4-oxobutanamide], with not below 8.00; and `O=C(CCC(=O)c1ccc2c(c1)CCO2)Nc1cc(-c2ccccc2O)cc(-c2ccccc2)n1` [Example 177, 4-(2,3-dihydro-1-benzofuran-5-yl)-N-[4-(2-hydroxyphenyl)-6-phenylpyridin-2-yl]-4-oxobutanamide], with 7.30 to 8.00.
Same read-out and setting: then `COc1ccccc1-c1cc(NC(=O)CCC(=O)c2ccc3c(c2)CCO3)nc(-c2ccccc2)c1` [Example 178, 4-(2,3-dihydro-1-benzofuran-5-yl)-N-[4-(2-methoxyphenyl)-6-phenylpyridin-2-yl]-4-oxobutanamide], with 7.30 to 8.00; and `O=C(CCC(=O)c1ccc2c(c1)CCO2)Nc1cc(-c2ccccc2CO)cc(-c2ccccc2)n1` [Example 179, 4-(2,3-dihydro-1-benzofuran-5-yl)-N-{4-[2-(hydroxymethyl)phenyl]-6-phenylpyridin-2-yl}-4-oxobutanamide], with 6.30 to 7.30.
On to `O=C(CCC(=O)c1ccc2c(c1)CCO2)Nc1cc(-c2ccccc2C(=O)O)cc(-c2ccccc2)n1` [Example 180, 2-(2-{[4-(2,3-dihydro-1-benzofuran-5-yl)-4-oxobutanoyl]amino}-6-phenylpyridin-4-yl)benzoic acid], for which the pIC50 is 5.00 to 6.30.
On the same count and under the same terms, with `COc1cc(-c2cc(NC(=O)CCC(=O)c3ccc4c(c3)CCO4)nc(-c3ccccc3)c2)ccc1O` [Example 181, 4-(2,3-dihydro-1-benzofuran-5-yl)-N-[4-(4-hydroxy-3-methoxyphenyl)-6-phenylpyridin-2-yl]-4-oxobutanamide] the figure was 7.30 to 8.00; with `COc1cc(-c2cc(NC(=O)CCC(=O)c3ccc4c(c3)CCO4)nc(-c3ccccc3)c2)cc(OC)c1OC` [Example 182, 4-(2,3-dihydro-1-benzofuran-5-yl)-4-oxo-N-[6-phenyl-4-(3,4,5-trimethoxyphenyl)pyridin-2-yl]butanamide], 5.00 to 6.30; with `Cc1cc(-c2cc(NC(=O)CCC(=O)c3ccc4c(c3)CCO4)nc(-c3ccccc3)c2)cc(C)c1O` [Example 183, 4-(2,3-dihydro-1-benzofuran-5-yl)-N-[4-(4-hydroxy-3,5-dimethylphenyl)-6-phenylpyridin-2-yl]-4-oxobutanamide], 6.30 to 7.30.
For the molecule `CCCCCC/C=C/c1cc(NC(=O)CCC(=O)c2ccc3c(c2)CCO3)nc(-c2ccccc2)c1` [Example 184, 4-(2,3-dihydro-1-benzofuran-5-yl)-N-{4-[(1E)-octa-1-en-1-yl]-6-phenylpyridin-2-yl}-4-oxobutanamide], the pIC50 is 5.00 to 6.30.

These data come from patent publication US20090048258A1, “Amide Compound” (priority 2005, published 2009).
